Measurements from paper PMC11955804, “Histidine-rich enantiomeric peptide coacervates enhance antigen sequestration and presentation to T cells” (Chemical Science, 2025).

How the values were obtained:
Turbidity assay of LLPS = assay type: physicochemical; details: 1× PBS pH 7.4, absorbance at 600 nm over 24 h, plate reader
From the text: (§1) Peptide synthesis and purification
The L- and D-enantiomers of (GHGLY)4, (GHGVY)4 and (GHGPY)4 peptides were purchased from GenScript and used without further modification. (GHGAY)4, (GHGFY)4, (GHGIY)4 and (GHGNY)4 were synthesized using standard Fmoc-SPPS chemistry on Rink Amide with Oxyma (Ethyl cyano(hydroxyimino) acetate) and N, N′-diisopropylcarbodiimide (DIC) as coupling agents on a Liberty Blue microwave-assisted synthesizer. Peptides were cleaved using a cocktail of trifluoroacetic acid (TFA), tri-isopropyl silane (TIS), and H2O (95:2.5:2.5) and extracted and washed in cold diethyl ether. The resulting pellet was dissolved in acetonitrile/water mixture (50:50) and frozen prior to lyophilization. Peptides were purified (~90%) using High Performance Liquid Chromatography (HPLC) on a Dionex Ultimate 3000 HPLC equipped with a diode-array detector on an Agilent Poroshell RP-C18 column (4.6 mm×150 mm), operating at a flow rate of 1 mL/min. […]
(§2) Peptide solutions (0.25–1.5 mM) were prepared in 1×PBS at pH 7.4. Aliquots (140 µL) were pipetted into a 96-well plate and absorbance at 600 nm was measured over 24 h using a Synergy HT plate reader (Biotek, USA) at RT or 37°C with or without agitation. The pH dependence of LLPS formation was assessed in 0.1 M potassium phosphate buffer (with 150 mM NaCl) at different pH values (5.8, 6.6, 7.4, 8.0) and 1 mM peptide concentration. […]
NaCl) was used to study ionic strength effects. The absorbance was further converted to turbidity using methods previously described 1 and data was plotted as relative turbidity. […]
Droplets were visualized in 1×PBS using NCI Leica DMC4500 microscope in reflection mode with differential interference contrast. […] Coacervate size was measured using 1 mM peptide solutions (1×PBS, pH 7.4) on a ZEN 3600 Zetasizer (Malvern Instruments, UK) using DLS-Zen 0040 specialized cuvettes. […]
Viscosity of the peptide solutions (1 mM or 2 mM) was tested using an ARES 2000ex rotational rheometer (TA Instruments, New Castle, DE). […] Viscosity was measured as a function

[1] = system: BMDCs overlaid with DOBW cells; assay: In vitro antigen presentation assay, MHC class II (BMDCs + DOBW hybridoma, IL-2 ELISA); details: DOBW overlay; for IL-2 levels at 4 °C compared to 37 °C controls: OVA-loaded coacervates, DCs at 4 °C, ELISA
Protocol: To test internalization mechanisms, we utilized in vitro antigen presentation assays (Fig. 4A). Here, bone marrow-derived dendritic cells (BMDCs) are treated with coacervates loaded with the model antigen ovalbumin (OVA). […] Secretion of IL-2 in response to peptide-MHC recognition is an indirect measure of coacervate uptake and can be quantified using ELISA (enzyme-linked immunosorbent assay) (Fig. 4A). […] We next used pharmacological inhibitors of endocytic mechanisms to explore mechanisms of cell entry (Fig. 4E). BMDCs were treated with inhibitors of clathrin-mediated endocytosis (chlorpromazine, CPZ),[58] dynamin-dependent endocytosis (dynasore, Dyn),[59] macropinocytosis (wortmannin, Wort),[60] cholesterol (methyl β-CD),[61] and IPA3 the regulatory domain of PAK1 (IPA-3)[62] for one h prior to antigen presentation assays.
Cellular uptake and antigen presentation assays
Uptake of coacervates by BMDCs was measured using in vitro antigen presentation assays.
BMDCs were plated in 96-well round-bottom plates (1×10^5 cells/well) and maintained at 4°C or
treated with 10 mM deoxy glucose and 10 mM sodium azide in PBS (ATP depletion) for 1 h prior
to addition of OVA-loaded coacervates. Final OVA concentration was 1 g/mL for time-
dependent measurements and 10 g/mL for comparison between enantiomers. Cells maintained at
37°C and complete RPMI media served as controls. Soluble OVA and PBS treated cells were used as controls for antigen delivery. Following treatment (2 h, 4 h, 24 h, 48 h, or 72 h), BMDCs were
washed to remove extracellular coacervates and DOBW hybridoma cells (1:5, DC: DOBW) were
overlaid for 16 h. The cells were then centrifuged at 300 × g for 5 min, and the supernatant was
collected for IL-2 quantitation by ELISA according to the manufacturer protocol (Biotechne,
#DY402). The amount of IL-2 produced under each condition was measured.
Inhibition of coacervate uptake was measured by adding the inhibitors 1 h
prior to coacervate treatment for 24 h followed by hybridoma overlay and IL-2 measurements.

[2] = Dynamic light scattering (DLS) droplet size; assay type: physicochemical; details: 1 mM peptide, 1× PBS, pH 7.4; mean of 3 measurements with 14 scans each; identical for each pair of enantiomers
Protocol: Optical microscopy and dynamic light scattering (DLS) […]
Coacervate size was measured using 1 mM
peptide solutions (1×PBS, pH 7.4) on a ZEN 3600 Zetasizer (Malvern Instruments, UK) using
DLS-Zen 0040 specialized cuvettes. The results were reported as the means of three
measurements, with 14 scans for each measurement. […]

[3] = Critical concentration (Ccrit) of coacervate formation; assay type: physicochemical; details: 1× PBS, pH 7.4; enantiomeric variants identical
From the text: as §1
The L- and D-enantiomers of (GHGLY)4, (GHGVY)4 and (GHGPY)4 peptides were purchased from GenScript and used without further modification. (GHGAY)4, (GHGFY)4, (GHGIY)4 and (GHGNY)4 were synthesized using standard Fmoc-SPPS chemistry on Rink Amide with Oxyma (Ethyl cyano(hydroxyimino) acetate) and N, N′-diisopropylcarbodiimide (DIC) as coupling agents on a Liberty Blue microwave-assisted synthesizer. Peptides were cleaved using a cocktail of trifluoroacetic acid (TFA), tri-isopropyl silane (TIS), and H2O (95:2.5:2.5) and extracted and washed in cold diethyl ether. The resulting pellet was dissolved in acetonitrile/water mixture (50:50) and frozen prior to lyophilization. Peptides were purified (~90%) using High Performance Liquid Chromatography (HPLC) on a Dionex Ultimate 3000 HPLC equipped with a diode-array detector on an Agilent Poroshell RP-C18 column (4.6 mm×150 mm), operating at a flow rate of 1 mL/min. Peaks corresponding to 220 nm were collected for MALDI -TOF mass analysis (Shimadzu MALDI-8030) using α-cyno-4-hydroxycinnamic acid matrix (Bruker Daltonics, MA).
as §2, with “concentration. Similarly, 0.1 M potassium phosphate buffer (pH 7.4) with varying salt concent rations (0, 150, 250, 500, 1000 mM” for “concentration.”
Figure S10. Determination of Ccrit for (a) (GHGLY)4, (b) (GHGVY)4, (c) (GHGPY)4 and (d-f) their corresponding enantiomers (1 mM, 1× PBS, pH 7.4).
Table S1. Measured Ccrit values for (GHGXY)4 peptides used in this study.
(1 picture or pasted object on this page, not shown here)

[4] = Droplet coalescence assay; assay type: physicochemical; details: video still images over 15 min; mixing of fluorophore-loaded droplets
Protocol: wavelength range of 215–260 nm with a bandwidth of 1.00 nm, 0.5 nm step. Solvent background was subtracted from each spectrum and data converted to mean residue ellipticity (MRE).
Droplet coalescence assays
Experiments were conducted to visualize the dynamic process of droplet fusion by capturing a series of still images over 15 min, with each acquisition every 500 ms. Contrast and brightness were adjusted to ensure optimal visibility of the coacervates, and noise cancellation was applied to reduce background interference. Frame correction aligned the images to account for shifts that occurred during capture. Additional enhancements included sharpening to visualize finer details and color correction to ensure that the visual representation closely matched the actual observation. The images were meticulously stacked to create a continuous video sequence that provided a dynamic view of the peptides' behavior, showing the evolution of coacervates from their initial formation, through stabilization and fusion. Significant fusion events were identified and marked with arrows. Advanced tracking algorithms were employed to follow movement and changes within the coacervates, and event segmentation was used to isolate specific interactions […]
Stem cell-derived cardiomyocytes and confocal microscopy […]

Substance: (GHGLY)4 [GL 20]
- turbidity over time (A600) (Turbidity assay of LLPS): formed a turbid solution instantaneously
- IL-2 levels at 4 °C compared to 37 °C controls [1]: significantly lower IL-2 levels
- droplet size (DLS) [2]: ~1.8 μm
- critical concentration (Ccrit) of coacervate formation [3]: 0.5 mM
- droplet fusion (coalescence) [4]: multiple rapid fusion events

Substance: (GHGVY)4 [GV 20]
- turbidity over time (A600) (Turbidity assay of LLPS): steadily increased over 24 h
- IL-2 levels at 4 °C compared to 37 °C controls [1]: significantly lower IL-2 levels
- IL-2 production compared to (GHGLY)4 at the same antigen dose ([1]; coacervates loaded with 1 μM OVA, pre-treatment 2-72 h): significantly higher
- droplet size (DLS) [2]: ~1.0 μm
- critical concentration (Ccrit) of coacervate formation [3]: 0.75 mM
- droplet fusion (coalescence) [4]: did not exhibit fusion behavior
